These results are taken from patent US11166924B2, “N-methyl-d-aspartate receptor allosteric modulators and methods for their use” (Qingdao Primedicine Pharmaceutical Company, Ltd., priority 2016, dated 2021).

For one test, the target named is T1, GluN1/GluN2A^P79A (Rattus norvegicus, UniProt P35439+Q00959, P79A).
T1 construct: expressed in transfected cells; host or cells: HEK293
As to the kind of experiment: Patch clamp in HEK293 cells expressing mutant GluN1/GluN2A P79A. In kind it is cell-based. As for the experimental part:
Whole cell patch-clamp recordings were performed under voltage-clamp mode using an Axopatch 200B or 1D patch-clamp amplifier (Molecular Devices). Whole-cell currents were recorded at a holding potential of −60 mV unless indicated elsewhere, and signals were filtered at 2 kHz, digitized at 10 kHz (Digidata 1322A). Recording pipettes (3-5 MΩ) were filled with intracellular solution containing (mM): CsCl 140, HEPES 10, Mg-ATP 4, QX-314 5, pH 7.20; osmolarity, 290-295 mOsm. BAPTA (10 mM) was added in the intracellular solution (unless otherwise specified). The coverslips were continuously superfused with extracellular solution containing (mM): NaCl 140, KCl 5.4, HEPES 10, CaCl2 1.3, glucose 20, pH 7.4; osmolarity, 305-315 mOsm. NMDA-induced currents were applied by NMDA through perfusion fast-step (Warner Instruments). With perfusion fast-step system, NMDA application was achieved by using a two-square barrel glass tubing and depending on the age of the cultured neurons, CNQX (10 μM), TTX (0.5 μM) or BIC (10 μM) were added in the extracellular solution to minimize the activation of ionotropic glutamate receptors and voltage-gated sodium channels, respectively. All experiments were performed at room temperature. Recordings from at least six HEK293 cells/neurons were performed for all active compounds. […]
For orientation: Patch clamp records ionic current or voltage across a cell membrane.

Test [1] addresses T2, GluN2B NMDARs in hippocampal slices (Mus musculus, UniProt P35438+Q01097).
T2 construct: from tissue; host or cells: mouse hippocampal slices, CA1 pyramidal neurons
As to the kind of experiment: Slice recordings, GluN2B component of synaptic NMDAR currents. Particulars: FIG. 18. An excerpt:
6-8 week old C57/Bl6 mice or rats underwent cervical dislocation followed by decapitation. The brain was immediately transferred to an ice cold NMDG-based cutting solution consisting of: (in mM): 120 NMDG, 2.5 KCl, 1.2 NaH2PO4, 25 NaHCO3, 1.0 CaCl2, 7.0 MgCl2, 2.4 Na-pyruvate, 1.3 Na-ascorbate, 20 D-glucose with pH adjusted to 7.35 using HCl acid (unless stated, all chemicals and drugs were purchased from Sigma or BioShop, Canada). The hippocampus was dissected out and transverse hippocampal slices (400 μm) were obtained using a manual tissue chopper (Stoelting, Wood Dale, Ill., USA). Slices recovered in a heated (30° C.) incubating chamber for 1 hr which contained ACSF composed of (in mM): 124 NaCl, 3 KCl, 1.25 NaH2PO4, 1 MgSO47H2O, 2 CaCl2), 26 NaHCO3 and 15 D-glucose which was bubbled continuously with carbogen (95% O2/5% CO2) (pH to 7.3). After 30 additional minutes at room temperature, slices were transferred to a submerged recording chamber and were perfused continuously with carbogenated ACSF (2-3 ml/min). Whole-cell recordings of CA1 pyramidal neurons were performed using the “blind” method with a MultiClamp 700B amplifier. EPSCs (excitatory post synaptic currents) were elicited by stimulating the SC pathway. For isolation of NMDAR currents, cells were voltage clamped at +40 mV. […]

T1 sequence (Q00959 23-1464 P79A, other chains not shown): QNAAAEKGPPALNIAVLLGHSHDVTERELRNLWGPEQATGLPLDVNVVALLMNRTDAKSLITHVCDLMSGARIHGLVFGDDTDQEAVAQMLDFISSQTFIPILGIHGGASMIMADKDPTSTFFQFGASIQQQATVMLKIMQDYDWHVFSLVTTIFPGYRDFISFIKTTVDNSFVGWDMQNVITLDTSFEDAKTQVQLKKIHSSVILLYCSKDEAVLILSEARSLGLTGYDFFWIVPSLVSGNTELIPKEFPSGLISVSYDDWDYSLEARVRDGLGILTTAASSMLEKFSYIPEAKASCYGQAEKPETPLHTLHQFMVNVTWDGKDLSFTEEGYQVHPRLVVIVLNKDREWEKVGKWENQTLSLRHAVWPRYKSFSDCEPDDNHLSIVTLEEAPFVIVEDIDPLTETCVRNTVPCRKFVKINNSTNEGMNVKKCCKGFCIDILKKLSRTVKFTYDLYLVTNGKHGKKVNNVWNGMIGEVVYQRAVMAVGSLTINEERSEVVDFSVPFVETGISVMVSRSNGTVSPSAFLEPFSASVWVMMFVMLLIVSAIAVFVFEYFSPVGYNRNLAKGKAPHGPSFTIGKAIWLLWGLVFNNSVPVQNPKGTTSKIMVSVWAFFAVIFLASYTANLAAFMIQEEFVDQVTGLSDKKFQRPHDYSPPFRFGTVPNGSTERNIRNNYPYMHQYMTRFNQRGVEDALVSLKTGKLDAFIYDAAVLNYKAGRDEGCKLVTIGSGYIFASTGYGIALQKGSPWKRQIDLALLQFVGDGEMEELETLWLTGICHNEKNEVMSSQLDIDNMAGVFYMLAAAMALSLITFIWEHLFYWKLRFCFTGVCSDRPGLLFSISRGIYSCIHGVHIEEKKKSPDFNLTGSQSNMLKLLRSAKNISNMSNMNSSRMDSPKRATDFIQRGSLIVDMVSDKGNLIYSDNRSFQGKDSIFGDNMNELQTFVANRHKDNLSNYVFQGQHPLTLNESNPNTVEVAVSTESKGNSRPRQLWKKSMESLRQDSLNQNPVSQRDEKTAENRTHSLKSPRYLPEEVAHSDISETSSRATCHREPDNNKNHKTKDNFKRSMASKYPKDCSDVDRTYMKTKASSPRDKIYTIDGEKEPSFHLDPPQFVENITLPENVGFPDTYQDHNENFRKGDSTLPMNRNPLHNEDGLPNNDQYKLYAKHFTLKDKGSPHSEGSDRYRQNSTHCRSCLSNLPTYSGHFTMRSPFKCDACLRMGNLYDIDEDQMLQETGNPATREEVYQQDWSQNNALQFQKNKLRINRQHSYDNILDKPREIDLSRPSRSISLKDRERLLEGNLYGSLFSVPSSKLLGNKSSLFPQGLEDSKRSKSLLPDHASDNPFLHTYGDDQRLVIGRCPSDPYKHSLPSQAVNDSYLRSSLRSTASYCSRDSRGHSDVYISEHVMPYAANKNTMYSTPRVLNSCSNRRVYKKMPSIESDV
T2 sequence (Q01097 27-1482, other chains not shown): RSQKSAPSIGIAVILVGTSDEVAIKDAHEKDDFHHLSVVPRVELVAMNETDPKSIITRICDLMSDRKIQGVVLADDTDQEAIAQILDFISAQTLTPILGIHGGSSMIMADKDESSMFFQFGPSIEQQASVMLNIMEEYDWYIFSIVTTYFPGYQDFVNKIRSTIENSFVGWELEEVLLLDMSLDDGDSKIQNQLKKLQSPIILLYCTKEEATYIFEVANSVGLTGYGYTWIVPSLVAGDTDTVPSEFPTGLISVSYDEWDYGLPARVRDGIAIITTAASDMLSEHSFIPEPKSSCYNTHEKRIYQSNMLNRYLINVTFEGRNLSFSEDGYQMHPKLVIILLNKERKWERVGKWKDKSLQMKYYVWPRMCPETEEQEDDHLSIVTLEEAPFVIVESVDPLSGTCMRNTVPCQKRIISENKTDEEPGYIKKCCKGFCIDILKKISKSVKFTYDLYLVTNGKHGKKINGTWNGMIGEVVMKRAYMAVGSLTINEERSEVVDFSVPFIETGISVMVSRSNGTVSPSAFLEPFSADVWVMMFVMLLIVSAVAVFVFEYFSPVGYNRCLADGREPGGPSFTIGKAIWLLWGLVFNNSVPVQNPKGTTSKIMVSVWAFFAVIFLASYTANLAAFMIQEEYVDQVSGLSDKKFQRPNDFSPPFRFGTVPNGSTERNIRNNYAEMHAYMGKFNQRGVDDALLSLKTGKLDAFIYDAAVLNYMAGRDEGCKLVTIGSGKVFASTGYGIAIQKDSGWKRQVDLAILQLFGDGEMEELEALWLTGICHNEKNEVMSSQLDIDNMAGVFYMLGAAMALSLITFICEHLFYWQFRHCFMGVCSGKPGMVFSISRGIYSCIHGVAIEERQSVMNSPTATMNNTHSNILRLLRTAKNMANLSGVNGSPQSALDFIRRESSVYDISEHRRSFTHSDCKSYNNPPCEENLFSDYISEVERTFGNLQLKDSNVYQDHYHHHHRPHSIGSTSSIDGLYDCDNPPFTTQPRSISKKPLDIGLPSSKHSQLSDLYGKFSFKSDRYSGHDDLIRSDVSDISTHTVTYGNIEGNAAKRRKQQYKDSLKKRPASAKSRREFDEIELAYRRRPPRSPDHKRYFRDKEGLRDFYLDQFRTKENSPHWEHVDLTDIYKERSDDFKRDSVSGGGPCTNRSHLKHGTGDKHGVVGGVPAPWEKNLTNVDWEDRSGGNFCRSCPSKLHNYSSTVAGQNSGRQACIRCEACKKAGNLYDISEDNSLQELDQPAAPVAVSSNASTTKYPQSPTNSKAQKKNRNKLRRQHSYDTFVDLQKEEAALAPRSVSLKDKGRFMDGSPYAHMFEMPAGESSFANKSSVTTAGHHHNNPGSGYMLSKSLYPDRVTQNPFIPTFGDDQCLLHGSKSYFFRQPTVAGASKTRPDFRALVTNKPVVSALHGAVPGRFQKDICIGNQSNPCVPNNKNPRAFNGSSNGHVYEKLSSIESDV

As to `CCOc1cc(Cl)c(Cl)c(/C=N/NC(=O)c2ccccc2Br)c1O` [Npam43, (E)-2-bromo-N′-(2,3-dichloro-5-ethoxy-6-hydroxybenzylidene)benzohydrazide], on GluN1/GluN2A^P79A (Table 3), the Relative potentiation came to 99.3 ± 2.8%. Besides, the “Net Difference potentiation” value on GluN1/GluN2A^P79A (normalized to wild-type) is listed as −52.5 ± 0.20%. Further, in test [1], the “Effect on GluN2B NMDARs” value is reported as “no effects on the GluN2B NMDARs”.
